PubChem BioAssay (NCI)
Values joined by “and” are separate entries in the source; they are usually repeats but may differ in a detail not shown here. Equal values may be shown once.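 Results reflect a 48-hour exposure of cells in 96-well plates to compound at five concentrations. GI50 = concentration required for 50% inhibition of growth. TGI: concentration producing complete growth inhibition.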

How the values were obtained:
Assay in all cases: growth of human tumour cells (NCI), 48 h
SNB-75 CNS = test system: SNB-75 CNS
SW-620 colon = test system: SW-620 colon
RXF 393 renal = test system: RXF 393 renal
ACHN renal = test system: ACHN renal
MDA-MB-435 = test system: MDA-MB-435
NCI-H23 lung = test system: NCI-H23 lung
HCT-15 colon = test system: HCT-15 colon
SF-268 CNS = test system: SF-268 CNS
LOX IMVI melanoma = test system: LOX IMVI melanoma
A549 NSCLC = test system: A549 NSCLC
EKVX NSCLC = test system: EKVX NSCLC
HT29 colon = test system: HT29 colon
IGROV1 ovarian = test system: IGROV1 ovarian
HCT-116 colon = test system: HCT-116 colon
OVCAR-8 ovarian = test system: OVCAR-8 ovarian
PC-3 prostate = test system: PC-3 prostate
HOP-62 NSCLC = test system: HOP-62 NSCLC
TK-10 renal = test system: TK-10 renal
CAKI-1 renal = test system: CAKI-1 renal
HCC-2998 colon = test system: HCC-2998 colon
DU-145 prostate = test system: DU-145 prostate
UACC-257 melanoma = test system: UACC-257 melanoma
NCI/ADR-RES ovarian = test system: NCI/ADR-RES ovarian
OVCAR-3 ovarian = test system: OVCAR-3 ovarian
COLO 205 colon = test system: COLO 205 colon
SR leukemia = test system: SR leukemia
NCI-H460 lung = test system: NCI-H460 lung
SK-MEL-5 melanoma = test system: SK-MEL-5 melanoma
RPMI-8226 leukemia = test system: RPMI-8226 leukemia
MDA-MB-231 breast = test system: MDA-MB-231 breast
NCI-H522 lung = test system: NCI-H522 lung
CCRF-CEM leukemia = test system: CCRF-CEM leukemia
T-47D breast = test system: T-47D breast
UO-31 renal = test system: UO-31 renal
MDA-N = test system: MDA-N
HS 578T breast = test system: HS 578T breast
SF-295 CNS = test system: SF-295 CNS
SF-539 CNS = test system: SF-539 CNS
BT-549 breast = test system: BT-549 breast
M14 melanoma = test system: M14 melanoma
K-562 leukemia = test system: K-562 leukemia
SK-MEL-28 melanoma = test system: SK-MEL-28 melanoma
U251 CNS = test system: U251 CNS
MALME-3M melanoma = test system: MALME-3M melanoma
HL-60(TB) leukemia = test system: HL-60(TB) leukemia
KM12 colon = test system: KM12 colon
MOLT-4 leukemia = test system: MOLT-4 leukemia
OVCAR-5 ovarian = test system: OVCAR-5 ovarian
NCI-H226 lung = test system: NCI-H226 lung
786-0 renal = test system: 786-0 renal
SN12C renal = test system: SN12C renal
A498 renal = test system: A498 renal
SK-OV-3 ovarian = test system: SK-OV-3 ovarian
HOP-92 NSCLC = test system: HOP-92 NSCLC
UACC-62 melanoma = test system: UACC-62 melanoma
MCF7 breast = test system: MCF7 breast
SNB-19 CNS = test system: SNB-19 CNS

## CC[C@@]1(O)C(=O)OCc2c1cc1n(c2=O)Cc2cc3c(Cl)c4c(cc3nc2-1)OCO4
SNB-75 CNS
  GI50: 2.88 nM
  TGI: > 100000 nM
SW-620 colon
  TGI: > 100000 nM
RXF 393 renal
  GI50: 37.1 nM and 14 nM
  TGI: 2220 nM and 230 nM
ACHN renal
  GI50: < 1 nM
  TGI: 1.85 nM and 10.9 nM
MDA-MB-435
  GI50: 19.3 nM and 22.9 nM
  TGI: > 100000 nM
NCI-H23 lung
  GI50: < 1 nM
HCT-15 colon
  GI50: 215 nM and 178 nM
  TGI: > 100000 nM
SF-268 CNS
  GI50: 21.6 nM
  TGI: 13200 nM
LOX IMVI melanoma
  GI50: < 1 nM
  TGI: 218 nM and 321 nM
A549 NSCLC
  GI50: < 1 nM
  TGI: 1680 nM and 3700 nM
EKVX NSCLC
  GI50: 5930 nM and 1910 nM
  TGI: > 100000 nM
HT29 colon
  TGI: 7850 nM
IGROV1 ovarian
  GI50: 121 nM and 285 nM
  TGI: > 100000 nM
HCT-116 colon
  GI50: 1100 nM
  TGI: > 100000 nM
OVCAR-8 ovarian
  GI50: < 1 nM
PC-3 prostate
  TGI: > 100000 nM
HOP-62 NSCLC
  GI50: < 1 nM
TK-10 renal
  TGI: 10600 nM
CAKI-1 renal
  GI50: < 1 nM
  TGI: > 100000 nM
HCC-2998 colon
  GI50: 149 nM and 235 nM
  TGI: 6420 nM
DU-145 prostate
  GI50: < 1 nM
  TGI: > 100000 nM
UACC-257 melanoma
  GI50: 156 nM and 312 nM
  TGI: 3640 nM and 1920 nM
NCI/ADR-RES ovarian
  GI50: < 1 nM
OVCAR-3 ovarian
  GI50: 653 nM and 1770 nM
  TGI: > 100000 nM
COLO 205 colon
  GI50: 1050 nM
  TGI: > 100000 nM
SR leukemia
  GI50: < 1 nM
NCI-H460 lung
  GI50: < 1 nM
  TGI: 279 nM and 382 nM
SK-MEL-5 melanoma
  GI50: < 1 nM
  TGI: 32.3 nM and 159 nM
RPMI-8226 leukemia
  TGI: 4380 nM
MDA-MB-231 breast
  GI50: 9.75 nM and 72.2 nM
  TGI: > 100000 nM
NCI-H522 lung
  TGI: 7580 nM and 60500 nM
CCRF-CEM leukemia
  GI50: < 1 nM
  TGI: > 100000 nM
T-47D breast
  GI50: < 1 nM
  TGI: > 100000 nM
UO-31 renal
  GI50: < 1 nM
MDA-N
  TGI: > 100000 nM
HS 578T breast
  TGI: > 100000 nM
SF-295 CNS
  GI50: < 1 nM
SF-539 CNS
  GI50: < 1 nM
  TGI: 92.4 nM
BT-549 breast
  GI50: < 1 nM
  TGI: 897 nM and 382 nM
M14 melanoma
  GI50: < 1 nM
  TGI: 4020 nM
K-562 leukemia
  GI50: < 1 nM
  TGI: > 100000 nM
SK-MEL-28 melanoma
  GI50: 442 nM and 1180 nM
  TGI: > 100000 nM
U251 CNS
  GI50: < 1 nM
MALME-3M melanoma
  GI50: 87 nM
  TGI: 31400 nM
HL-60(TB) leukemia
  GI50: < 1 nM
  TGI: 5.18 nM and 16.4 nM
KM12 colon
  GI50: 162 nM and 108 nM
  TGI: > 100000 nM
MOLT-4 leukemia
  GI50: < 1 nM
OVCAR-5 ovarian
  GI50: 985 nM and 193 nM
  TGI: 1690 nM
NCI-H226 lung
  GI50: < 1 nM
  TGI: 70.1 nM
786-0 renal
  TGI: > 100000 nM
SN12C renal
  GI50: < 1 nM
A498 renal
  GI50: 1.82 nM
  TGI: 309 nM and 1190 nM
SK-OV-3 ovarian
  GI50: 2.65 nM and 17.6 nM
HOP-92 NSCLC
  GI50: < 1 nM
  TGI: 80.1 nM
UACC-62 melanoma
  GI50: < 1 nM
  TGI: 337 nM and 544 nM
MCF7 breast
  TGI: 193 nM
SNB-19 CNS
  GI50: 1.25 nM
  TGI: 260 nM
